# From article PMC11912270, “Synthesis and SAR Studies of Acyl-Thiourea Platinum(II) Complexes Yield Analogs with Dual-Stage Antiplasmodium Activity” (ACS Medicinal Chemistry Letters, 2025)
# What was measured:
# [1] = Plasma protein binding by ultracentrifugation; type: in vitro ADME, human
# Description: To determine the PK parameters, blood samples were collected from the tail vein of the mice into heparinized microcentrifugation tubes at distinct sampling times (0.17, 0.5, 1, 3, 5, 7, 9, 24, and 48 hours for intravenous dosing; 0.5, 1, 3, 5, 7, 9, 24 and 48 hours for oral dosing). All samples were stored at -80 °C until extraction.
# For the bioanalysis, frozen whole blood was thawed at room temperature and 1-0 µL of each sample was extracted by protein precipitation (using 100 µL of acetonitrile containing 10 ng/ml of the internal standard, MMV394902). The sample was centrifuged. Supernatants of each sample were injected into the LC-MS/MS column for analysis. The analytical limit of quantitation (LOQ) was 2 ng/mL. The pharmacokinetic parameters were calculated using noncompartmental analysis using PK Solutions 2.0 (Summit Research Services, Montrose, CO, USA) and a curve stripping-based method.
# 1.10. […]
# In preparation for the assay, the required membrane filters were precoated with hexadecane (5%) in hexane and were allowed to dry. […] The samples were analyzed using LCMS/MS (Agilent rapid resolution HPLC, AB SCIEX 4500 MS). The permeability (Papp) was calculated by using the normalized (analyte/internal standard) peak areas. Membrane integrity was calculated from the Papp of Lucifer yellow (acceptable values <50nm/s) using a Modulus microplate reader. […]
# Cyclic voltammetry = type: physicochemical
# From the text: It is known that Fe^2+/Fe^3+ redox chemistry has an important role in the bioactivity of ferrocene derivatives.[33] The production of reactive oxygen species (ROS) is one of the modes of action of ferroquine and other ferrocene derivatives[34] and is linked to the correlation between their bioactivity and electrochemical behavior. We determined whether a similar correlation could be made for the mixed-ligand platinum(II) complexes reported herein given that metal centers have the potential to be oxidized and reduced. The electrochemistry of the complexes was studied using cyclic voltammetry (CV), which uses a triangular potential waveform. The CV experiments were performed in either dry MeOH or DMF containing tetrabutylammonium chloride (TBACl) as the supporting electrolyte. The working electrode was glassy carbon with a platinum wire as the counter electrode and Ag/AgCl as the reference. The anodic (Epa) and cathodic (Epc) peak potentials at 0.1 V/s and half-wave potentials (E1/2) were measured (Table 3). All of the tested complexes undergo reversible one-electron Pt^2+/Pt^+ reductions (Figures S38–S46). Complexes C2, C4, and C8 undergo a second nonreversible reduction (Epc2), which is most likely ligand-based and linked to reductions of the substituent on the bpy. Looking at SAR2, the more electron-withdrawing the substituent, the […] the E1/2 (V vs Fe/Fe^+) value was. This trend was expected, as a more electron-withdrawing substituent reduces the electron density around the metal center, making it easier for the metal to be reduced from Pt^2+ to Pt^+. […] This is also the case for other bpy-containing platinum(II) complexes that only undergo reductions.[35],[36] […]
# For the cyclic voltammetry experiments a solution of the test compound (1 x 10-3) in DMSO (3 mL) is added to the electrolyte solution (0.1 M tetrabutylammonium chloride (TBACl) in DMSO). The electrochemical measurements were obtained using a Basi Epsilon Eclipse Electrochemical Analyzer Potentiostat and the CV graphs were generated using Excel. The working electrode was glassy carbon (GC) with platinum wire as the counter electrode (CE) and Ag/AgCl as the reference. […]
# ABS parasites = assay: Dual point activity against ABS parasites; type: cell-based, Plasmodium falciparum; settings: single biological repeat
# From the text: Table S2: Dual point activity of platinum(II) complexes against ABS parasites, early- and late-
# stage gametocytes. Values are averaged from technical triplicates performed for a single
smiles,measurement,setting,value
Nc1cc[n+]2c(c1)-c1cc(N)cc[n+]1[Pt-2]21[O+]=C(c2ccccc2)N=C(N(CCO)CCO)[S]1.[Cl-] [C6],Fu,[1]; Fu = (100 – PPB)/100,0.01
same,PPB (% bound),"[1]; human plasma, 5 µM",99% bound
same,Epa1,"Cyclic voltammetry; anodic peak potential, 0.1 V/s",–1.138 V
same,Epc1,"Cyclic voltammetry; cathodic peak potential, 0.1 V/s",–1.068 V
same,E1/2,Cyclic voltammetry; half-wave potential,–1.103 V vs Ag/Ag^+
same,E1/2,Cyclic voltammetry; half-wave potential corrected to ferrocene,–1.643 V vs Fe/Fe^+
same,ABS (% inhibition) 1 µM,ABS parasites; 1 µM,100.7 % inhibition
same,ABS (% inhibition) 5 µM,ABS parasites; 5 µM,100.2 % inhibition
